Experimental data published in patent US7972815B2, “Method of producing sugar chain using human G4 polypeptide” (Kyowa Hakko Kirin Co., Ltd., priority 1999, dated 2011).

Assays:
Format in all cases: biochemical
secretory G4 = target: T1, secretory G4 (Homo sapiens, UniProt Q9Y2A9, R328H); assay: β1,3-galactosyltransferase activity of the secretory G4; settings: receptor substrate 10 mmol/l, 37° C., 16 hours
T1 construct: made in house; host or cells: Sf21 insect cells infected with recombinant baculovirus from pVL1393-F2G4
T1 sequence (Q9Y2A9 38-372 R328H): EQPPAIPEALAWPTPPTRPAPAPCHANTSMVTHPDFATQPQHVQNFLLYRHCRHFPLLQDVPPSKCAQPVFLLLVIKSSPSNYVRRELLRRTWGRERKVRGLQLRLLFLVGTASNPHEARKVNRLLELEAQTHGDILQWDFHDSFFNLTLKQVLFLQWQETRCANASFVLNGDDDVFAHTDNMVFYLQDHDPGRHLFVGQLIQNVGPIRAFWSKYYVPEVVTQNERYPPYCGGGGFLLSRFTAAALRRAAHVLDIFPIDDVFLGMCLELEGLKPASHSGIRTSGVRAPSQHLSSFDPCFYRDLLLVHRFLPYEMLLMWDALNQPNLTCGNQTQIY
Method: On the other hand, when β1,3-galactosyltransferase activity of the secretory G4 was measured by using GlcNAc and GlcNAcβ1-3Galβ1-4Glc as receptor substrates, the activity was not detected.
(§1) The glycosyltransferase reaction was carried out as follows. The reaction was carried out at 37° C. for 16 hours in 40 μl of an assay solution [50 mmol/l MOPS (pH 7.5), 5 mmol/l UDP-GlcNAc (SIGMA), 5 mmol/l MnCl2, 10 mmol/l of a sugar chain substrate and 10 μl of the above eluate]. Next, the reaction solution was treated at 100° C. for 5 minutes and then centrifuged at 10,000×g for 20 minutes to obtain the supernatant, and a portion thereof was analyzed by using HPAE/PAD (High Performance Anion Pulsed Amperometoric Detection; manufactured by DIONEX). The specific method was carried out in the usual way [Anal. Biochem., 189, 151 (1990), J. Biol. Chem., 273, 433 (1998)].

secreted G3 = target: T2, secreted G3 (Homo sapiens, UniProt Q9NY97); assay: β1,3-galactosyltransferase activity of the secreted G3; settings: acceptor substrate, method of Example 11(2)
T2 construct: made in house; host or cells: Sf21 insect cells infected with recombinant baculovirus from pVL1393-F2G3
T2 sequence (Q9NY97 31-397): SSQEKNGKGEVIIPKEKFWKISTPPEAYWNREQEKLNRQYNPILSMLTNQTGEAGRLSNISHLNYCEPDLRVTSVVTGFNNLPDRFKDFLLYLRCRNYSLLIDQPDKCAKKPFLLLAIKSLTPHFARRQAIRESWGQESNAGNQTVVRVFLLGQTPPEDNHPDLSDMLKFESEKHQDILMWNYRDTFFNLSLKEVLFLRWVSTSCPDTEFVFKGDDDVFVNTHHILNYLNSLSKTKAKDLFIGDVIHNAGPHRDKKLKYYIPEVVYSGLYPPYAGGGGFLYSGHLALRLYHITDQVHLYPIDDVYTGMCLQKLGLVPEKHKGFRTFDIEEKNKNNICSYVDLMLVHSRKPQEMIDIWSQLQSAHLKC
Method: as §1
On the other hand, when β1,3-galactosyltransferase activity of the secreted G3 was measured by using GlcNAc and GlcNAcβ1-3Galβ1-4Glc as acceptor substrates, the activity was not detected. […] The method described in Example 11(2) was used.

secreted G7 = target: T3, secreted G7 (Homo sapiens, UniProt Q9C0J1); assay: β1,3-galactosyltransferase activity of the secreted G7; settings: acceptor substrate, method of Example 11(2)
T3 construct: made in house; host or cells: Sf21 insect cells infected with recombinant baculovirus from pVL1393-F2G7
Method: as §1
On the other hand, when β1,3-galactosyltransferase activity of the secreted G7 was measured by using GlcNAc and GlcNAcβ1-3Galβ1-4Glc as acceptor substrates, the activity was not detected. […] The method described in Example 11(2) was used.

Measured: β1,3-galactosyltransferase activity

T3 sequence (Q9C0J1 56-378): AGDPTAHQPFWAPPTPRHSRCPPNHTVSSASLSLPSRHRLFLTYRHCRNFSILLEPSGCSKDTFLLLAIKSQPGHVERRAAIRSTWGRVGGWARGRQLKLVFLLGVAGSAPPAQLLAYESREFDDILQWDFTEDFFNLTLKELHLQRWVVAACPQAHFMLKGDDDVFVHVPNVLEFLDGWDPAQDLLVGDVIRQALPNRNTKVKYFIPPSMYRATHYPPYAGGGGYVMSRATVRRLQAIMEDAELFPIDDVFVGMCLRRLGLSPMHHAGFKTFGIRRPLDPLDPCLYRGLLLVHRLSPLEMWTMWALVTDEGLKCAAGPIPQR

CC(=O)N[C@H]1C(O)O[C@H](CO)[C@@H](O)[C@@H]1O (stereo partly drawn) [GlcNAc, N-acetylglucosamine]
not detected: all assays above

CC(=O)N[C@H]1[C@H](O[C@H]2[C@@H](O)[C@@H](CO)O[C@@H](O[C@H]3[C@H](O)[C@@H](O)C(O)O[C@@H]3CO)[C@@H]2O)O[C@H](CO)[C@@H](O)[C@@H]1O (stereo partly drawn) [GlcNAcβ1-3Galβ1-4Glc]
not detected: all assays above
